Data from patent US20240277746A1, “OPHTHALMIC NANO-DISPERSION COMPOSITION, A METHOD OF PREPARATION THEREOF, AND FORMULATION FOR CORNEAL EPITHELIAL WOUND HEALING” (THE UNIVERSITY OF JORDAN, priority 2021, published 2024).

Assays:
[1] = Transcorneal permeation study, Franz-type diffusion cells; format: in vitro ADME, sheep; conditions: AA-2G, mean ± SD, n = 3
Procedure: (§1) In vitro permeation and accumulation studies were performed on freshly excised sheep cornea obtained from a local slaughterhouse within an hour after the slaughter of the animals.
After the preparation of excised cornea, it was directly fixed between the donor and receptor compartments of Franz-type diffusion cells in such a way that its epithelial surface was facing the donor compartment and the endothelial surface was facing the receptor compartment.
The diameter of the diffusion area of the diffusion cells was 11 mm, producing an effective diffusion area of about 0.95 cm^2. The receptor compartment was filled with about 12 ml of normal saline solution stirred using teflon-coated magnetic stirring bars and maintained at a temperature of about 37° C. by circulating warm water through the water jacket around the receptor compartment. Special care was taken to expel air bubbles from the receptor fluid.
The permeation study was carried out by placing about 1 ml of either the prepared AA-2G loaded S/O nano-dispersion, AA-2G solution or normal saline on top of the cornea in the donor compartment.
An aliquot (about 0.3 ml) of the receptor fluid was withdrawn at about 0.5, 1, 1.5, 2, 3, 4, and 6 hours after beginning the experiment and replaced by an equal volume of fresh receptor solution. The receptor fluid content of AA-2G was determined quantitatively using the High-performance liquid chromatography (“HPLC”) method.

[2] = Corneal accumulation study (AA-2G entrapped within the corneal tissue after the permeation study); format: in vitro ADME, sheep; conditions: Qr6 hr; AA-2G in corneal tissue; mean ± SD, n = 3
Procedure: as §1
To quantify the amount of AA-2G entrapped within the corneal tissue after finishing the in vitro permeation study, the diffusion cells were dismantled, the corneas were quickly washed with normal saline to remove the surface-attached AA-2G, then the diffusional areas were cut out and digested using about 0.5 ml of 0.5 M NaOH for about 12 hours at about 37° C. in a shaker incubator to obtain a solution. After that, about 0.5 ml of ethanol and about 1 ml of acetonitrile were added to this solution to precipitate the dissolved proteins. The samples were then centrifuged at about 8000 rpm for about 10 minutes. The supernatants were taken and diluted with the mobile phase for HPLC analysis.

[3] = test system: rabbit corneas subjected to epithelial debridement; experiment: Corneal epithelial healing in rabbit eyes; format: in vivo
Procedure: Rabbits were used to evaluate the ability of formulations to accelerate corneal epithelial wound healing in-vivo. Xylazine was used to induce analgesia in the rabbits with intramuscular injections of about 6 mg/kg. Proparacaine 0.5% weight/volume eye drops were also used as supplemental analgesia.
The eyes were kept open during the depredation using a speculum.
Using cotton buds, about 10% of alcohol was applied to the central regions of rabbit corneas for about 20 seconds. Then epithelia within an 8 mm diameter circle in were mechanically scraped using a blunt spatula. After that, eyes were washed several times using normal saline to remove scraped epithelial cells and residual alcohol that can induce corneal irritations.
The rabbits were divided into five treatment groups. Each group contained four animals. Right eyes were selected to receive normal saline while left eyes were assigned to receive the treatment.
The treatment was either about 200 μl (4 drops) of 5% ascorbic acid solution in 0.2 N sodium phosphate buffer pH 7.4, blank oily eye drops, AA as oily eye drops and AA-2G as oily eye drops.
The treatments were administered topically to the wounded eyes, along with topical ofloxacin antibiotic drops (Oflox, Allergan, Inc.), immediately following surgery and 6, 12, 24, 30, 36, 48, 54, 60 and 72-hour post-surgery.
Throughout the healing process, rabbits were closely monitored for evidence of distress or infection, and epithelial wound closure was examined at each dosing time point by applying about 50 μL of 0.25% topical fluorescein eye drops to the injured cornea and imaging the wound under cobalt blue light.
The area of each epithelial defect was measured using “ImageJ”, an image analysis software. Percent healing (“H %”) was calculated as a percentage of the initial wound area. According to the following equation: […]
Wherein Ai indicates the wound area at a given time point and A0 indicates the initial wound area.

Structure (SMILES) | Amount permeated per unit area Qt ([1]; Time 0.5 hr) | Amount permeated per unit area Qt ([1]; Time 1 hr) | Amount permeated per unit area Qt ([1]; Time 1.5 hr) | Amount permeated per unit area Qt ([1]; Time 2 hr) | Amount permeated per unit area Qt ([1]; Time 3 hr) | Amount permeated per unit area Qt ([1]; Time 4 hr) | Amount permeated per unit area Qt ([1]; Time 6 hr) | Amount accumulated per unit area Qr (accumulation) [2] | relative healing rate (normalized to normal saline) ([3]; 6-hour) | relative healing rate (normalized to normal saline) ([3]; 12-hours) | % healing ([3]; after 6 hours, topical, rabbit, n=4) | wound-healing rate enhancement vs control (normal saline) ([3]; first 6 hours) | effect on corneal epithelial healing ([3]; rabbit eyes, topical, vs normal saline)
O=C1O[C@H]([C@@H](O)CO)C(O)=C1O[C@H]1O[C@H](CO)[C@@H](O)[C@H](O)[C@H]1O [AA-2G solution, Ascorbyl glucoside] | 0.00 μg/cm2 | 0.00 μg/cm2 | 0.00 μg/cm2 | 0.00 μg/cm2 | 4.56 ± 3.29 μg/cm2 | 11.21 ± 3.67 μg/cm2 | 41.02 ± 0.21 μg/cm2 | 30.91 ± 1.04 μg/cm2 |  |  |  |  | 
O=C1O[C@H]([C@@H](O)CO)C(O)=C1O [AA solution, ascorbic acid] |  |  |  |  |  |  |  |  | 3.28 | 1.39 | 22.9% | up to 3.28 folds | significantly increased
